Test results reported in ChEMBL document CHEMBL1152405, “Bis-anthracenyl isoxazolyl amides have enhanced anticancer activity” (Bioorg Med Chem Lett, 2009).

What was measured:
SNB-19 [1] = experiment: Antitumor activity against human SNB19 cells after 24 hrs; assay type: functional, cell-based; conditions: SNB-19, 24 h
A549 = experiment: Growth inhibition of human A549 cells at 10 uM after 24 hrs by MTT assay relative to control; assay type: functional; parameters: scale not given: the % may be the effect or the level left
EKVX = experiment: Growth inhibition of human EKVX cells at 10 uM after 24 hrs by MTT assay relative to control; assay type: functional; parameters: scale not given: the % may be the effect or the level left
HOP-62 = experiment: Growth inhibition of human HOP62 cells at 10 uM after 24 hrs by MTT assay relative to control; assay type: functional; parameters: scale not given: the % may be the effect or the level left
HOP-92 = experiment: Growth inhibition of human HOP92 cells at 10 uM after 24 hrs by MTT assay relative to control; assay type: functional; parameters: scale not given: the % may be the effect or the level left
NCI-H23 = experiment: Growth inhibition of human NCI-H23 cells at 10 uM after 24 hrs by MTT assay relative to control; assay type: functional; parameters: scale not given: the % may be the effect or the level left
NCI-H322M = experiment: Growth inhibition of human NCI-H322M cells at 10 uM after 24 hrs by MTT assay relative to control; assay type: functional; parameters: scale not given: the % may be the effect or the level left
NCI-H460 = experiment: Growth inhibition of human NCI-H460 cells at 10 uM after 24 hrs by MTT assay relative to control; assay type: functional; parameters: scale not given: the % may be the effect or the level left
NCI-H522 = experiment: Growth inhibition of human NCI-H522 cells at 10 uM after 24 hrs by MTT assay relative to control; assay type: functional; parameters: scale not given: the % may be the effect or the level left
COLO 205 = experiment: Growth inhibition of human COLO205 cells at 10 uM after 24 hrs by MTT assay relative to control; assay type: functional; parameters: scale not given: the % may be the effect or the level left
HCC 2998 = experiment: Growth inhibition of human HCC2998 cells at 10 uM after 24 hrs by MTT assay relative to control; assay type: functional; parameters: scale not given: the % may be the effect or the level left
HCT-116 = experiment: Growth inhibition of human HCT116 cells at 10 uM after 24 hrs by MTT assay relative to control; assay type: functional; parameters: scale not given: the % may be the effect or the level left
HCT-15 = experiment: Growth inhibition of human HCT15 cells at 10 uM after 24 hrs by MTT assay relative to control; assay type: functional; parameters: scale not given: the % may be the effect or the level left
HT-29 = experiment: Growth inhibition of human HT-29 cells at 10 uM after 24 hrs by MTT assay relative to control; assay type: functional; parameters: scale not given: the % may be the effect or the level left
KM12 = experiment: Growth inhibition of human KM12 cells at 10 uM after 24 hrs by MTT assay relative to control; assay type: functional; parameters: scale not given: the % may be the effect or the level left
SW-620 = experiment: Growth inhibition of human SW620 cells at 10 uM after 24 hrs by MTT assay relative to control; assay type: functional; parameters: scale not given: the % may be the effect or the level left
BT-549 = experiment: Growth inhibition of human BT549 cells at 10 uM after 24 hrs by MTT assay relative to control; assay type: functional; parameters: scale not given: the % may be the effect or the level left
[2] = Growth inhibition of human Hs 578T cells at 10 uM after 24 hrs by MTT assay relative to control; assay type: functional; parameters: scale not given: the % may be the effect or the level left
MCF7 = experiment: Growth inhibition of human MCF7 cells at 10 uM after 24 hrs by MTT assay relative to control; assay type: functional; parameters: scale not given: the % may be the effect or the level left
MDA-MB-231 = experiment: Growth inhibition of human MDA-MB-231 cells at 10 uM after 24 hrs by MTT assay relative to control; assay type: functional; parameters: scale not given: the % may be the effect or the level left
MDA-MB-435 = experiment: Growth inhibition of human MDA-MB-435 cells at 10 uM after 24 hrs by MTT assay relative to control; assay type: functional; parameters: scale not given: the % may be the effect or the level left
MDA-MB-468 = experiment: Growth inhibition of human MDA-MB-468 cells at 10 uM after 24 hrs by MTT assay relative to control; assay type: functional; parameters: scale not given: the % may be the effect or the level left
NCI/ADR-RES = experiment: Growth inhibition of human NCI/ADR-RES cells at 10 uM after 24 hrs by MTT assay relative to control; assay type: functional; parameters: scale not given: the % may be the effect or the level left
T47D = experiment: Growth inhibition of human T47D cells at 10 uM after 24 hrs by MTT assay relative to control; assay type: functional; parameters: scale not given: the % may be the effect or the level left
IGROV-1 = experiment: Growth inhibition of human IGROV1 cells at 10 uM after 24 hrs by MTT assay relative to control; assay type: functional; parameters: scale not given: the % may be the effect or the level left
OVCAR-3 = experiment: Growth inhibition of human OVCAR-3 cells at 10 uM after 24 hrs by MTT assay relative to control; assay type: functional; parameters: scale not given: the % may be the effect or the level left
OVCAR-4 = experiment: Growth inhibition of human OVCAR4 cells at 10 uM after 24 hrs by MTT assay relative to control; assay type: functional; parameters: scale not given: the % may be the effect or the level left
OVCAR-5 = experiment: Growth inhibition of human OVCAR5 cells at 10 uM after 24 hrs by MTT assay relative to control; assay type: functional; parameters: scale not given: the % may be the effect or the level left
OVCAR-8 = experiment: Growth inhibition of human OVCAR8 cells at 10 uM after 24 hrs by MTT assay relative to control; assay type: functional; parameters: scale not given: the % may be the effect or the level left
SK-OV-3 = experiment: Growth inhibition of human SKOV3 cells at 10 uM after 24 hrs by MTT assay relative to control; assay type: functional; parameters: scale not given: the % may be the effect or the level left
CCRF-CEM = experiment: Growth inhibition of human CCRF-CEM cells at 10 uM after 24 hrs by MTT assay relative to control; assay type: functional; parameters: scale not given: the % may be the effect or the level left
HL-60(TB) = experiment: Growth inhibition of human HL-60(TB) cells at 10 uM after 24 hrs by MTT assay relative to control; assay type: functional; parameters: scale not given: the % may be the effect or the level left
K562 = experiment: Growth inhibition of human K562 cells at 10 uM after 24 hrs by MTT assay relative to control; assay type: functional; parameters: scale not given: the % may be the effect or the level left
MOLT-4 = experiment: Growth inhibition of human MOLT4 cells at 10 uM after 24 hrs by MTT assay relative to control; assay type: functional; parameters: scale not given: the % may be the effect or the level left
[3] = Growth inhibition of human […] cells at 10 uM after 24 hrs by MTT assay relative to control; assay type: functional; parameters: scale not given: the % may be the effect or the level left
786-0 = experiment: Growth inhibition of human 786-0 cells at 10 uM after 24 hrs by MTT assay relative to control; assay type: functional; parameters: scale not given: the % may be the effect or the level left
A498 = experiment: Growth inhibition of human A498 cells at 10 uM after 24 hrs by MTT assay relative to control; assay type: functional; parameters: scale not given: the % may be the effect or the level left
ACHN = experiment: Growth inhibition of human ACHN cells at 10 uM after 24 hrs by MTT assay relative to control; assay type: functional; parameters: scale not given: the % may be the effect or the level left
CAKI-1 = experiment: Growth inhibition of human Caki1 cells at 10 uM after 24 hrs by MTT assay relative to control; assay type: functional; parameters: scale not given: the % may be the effect or the level left
SN12C = experiment: Growth inhibition of human SN12C cells at 10 uM after 24 hrs by MTT assay relative to control; assay type: functional; parameters: scale not given: the % may be the effect or the level left
TK-10 = experiment: Growth inhibition of human TK10 cells at 10 uM after 24 hrs by MTT assay relative to control; assay type: functional; parameters: scale not given: the % may be the effect or the level left
UO-31 = experiment: Growth inhibition of human UO31 cells at 10 uM after 24 hrs by MTT assay relative to control; assay type: functional; parameters: scale not given: the % may be the effect or the level left
LOX IMVI = experiment: Growth inhibition of human LOXIMVI cells at 10 uM after 24 hrs by MTT assay relative to control; assay type: functional; parameters: scale not given: the % may be the effect or the level left
M14 = experiment: Growth inhibition of human M14 cells at 10 uM after 24 hrs by MTT assay relative to control; assay type: functional; parameters: scale not given: the % may be the effect or the level left
Malme-3M = experiment: Growth inhibition of human MALME-3M cells at 10 uM after 24 hrs by MTT assay relative to control; assay type: functional; parameters: scale not given: the % may be the effect or the level left
SK-MEL-2 = experiment: Growth inhibition of human SK-MEL-2 cells at 10 uM after 24 hrs by MTT assay relative to control; assay type: functional; parameters: scale not given: the % may be the effect or the level left
SK-MEL-28 = experiment: Growth inhibition of human SK-MEL-28 cells at 10 uM after 24 hrs by MTT assay relative to control; assay type: functional; parameters: scale not given: the % may be the effect or the level left
SK-MEL-5 = experiment: Growth inhibition of human SK-MEL-5 cells at 10 uM after 24 hrs by MTT assay relative to control; assay type: functional; parameters: scale not given: the % may be the effect or the level left
UACC-257 = experiment: Growth inhibition of human UACC257 cells at 10 uM after 24 hrs by MTT assay relative to control; assay type: functional; parameters: scale not given: the % may be the effect or the level left
UACC-62 = experiment: Growth inhibition of human UACC62 cells at 10 uM after 24 hrs by MTT assay relative to control; assay type: functional; parameters: scale not given: the % may be the effect or the level left
DU-145 = experiment: Growth inhibition of human DU145 cells at 10 uM after 24 hrs by MTT assay relative to control; assay type: functional; parameters: scale not given: the % may be the effect or the level left
PC-3 = experiment: Growth inhibition of human PC3 cells at 10 uM after 24 hrs by MTT assay relative to control; assay type: functional; parameters: scale not given: the % may be the effect or the level left
SF-268 = experiment: Growth inhibition of human SF268 cells at 10 uM after 24 hrs by MTT assay relative to control; assay type: functional; parameters: scale not given: the % may be the effect or the level left
SF-295 = experiment: Growth inhibition of human SF295 cells at 10 uM after 24 hrs by MTT assay relative to control; assay type: functional; parameters: scale not given: the % may be the effect or the level left
SF-539 = experiment: Growth inhibition of human SF539 cells at 10 uM after 24 hrs by MTT assay relative to control; assay type: functional; parameters: scale not given: the % may be the effect or the level left
SNB-19 [4] = experiment: Growth inhibition of human SNB19 cells at 10 uM after 24 hrs by MTT assay relative to control; assay type: functional; parameters: scale not given: the % may be the effect or the level left
SNB-75 = experiment: Growth inhibition of human SNB75 cells at 10 uM after 24 hrs by MTT assay relative to control; assay type: functional; parameters: scale not given: the % may be the effect or the level left
U-251 = experiment: Growth inhibition of human U251 cells at 10 uM after 24 hrs by MTT assay relative to control; assay type: functional; parameters: scale not given: the % may be the effect or the level left
SR = experiment: Growth inhibition of human SR cells at 10 uM after 24 hrs by MTT assay relative to control; assay type: functional; parameters: scale not given: the % may be the effect or the level left

## Cc1onc(-c2c3ccccc3c(Cl)c3ccccc23)c1C(=O)Nc1cc(C(=O)NCCCNC(=O)c2cc(NC(=O)c3c(-c4c5ccccc5c(Cl)c5ccccc45)noc3C)cn2C)n(C)c1
SNB-19 [1]
  IC50: > 100 µM
A549
  Activity: 86.45%
EKVX
  Activity: 92.34%
HOP-62
  Activity: 87.7%
HOP-92
  Activity: 66.96%
NCI-H23
  Activity: 105.33%
NCI-H322M
  Activity: 105.3%
NCI-H460
  Activity: 101.62%
NCI-H522
  Activity: 76.93%
COLO 205
  Activity: 76.5%
HCC 2998
  Activity: 130.16%
HCT-116
  Activity: 88.45%
HCT-15
  Activity: 102.58%
HT-29
  Activity: 93.17%
KM12
  Activity: 96.11%
SW-620
  Activity: 109.27%
BT-549
  Activity: 126.28%
[2]
  Activity: 88.87%
MCF7
  Activity: 94.12%
MDA-MB-231
  Activity: 86.9%
MDA-MB-435
  Activity: 85.56%
MDA-MB-468
  Activity: 92.57%
NCI/ADR-RES
  Activity: 103.72%
T47D
  Activity: 76.21%
IGROV-1
  Activity: 64.38%
OVCAR-3
  Activity: 88.29%
OVCAR-4
  Activity: 67.84%
OVCAR-5
  Activity: 95.22%
OVCAR-8
  Activity: 88.63%
SK-OV-3
  Activity: 100.87%
CCRF-CEM
  Activity: 84.24%
HL-60(TB)
  Activity: 160.8%
K562
  Activity: 98.76%
MOLT-4
  Activity: 91.53%
[3]
  Activity: 78.11%
786-0
  Activity: 81.38%
A498
  Activity: 118.2%
ACHN
  Activity: 79.36%
CAKI-1
  Activity: 71.63%
SN12C
  Activity: 106.37%
TK-10
  Activity: 107.71%
UO-31
  Activity: 60.64%
LOX IMVI
  Activity: 82.59%
M14
  Activity: 80.43%
Malme-3M
  Activity: 94.79%
SK-MEL-2
  Activity: 102.24%
SK-MEL-28
  Activity: 116.55%
SK-MEL-5
  Activity: 104%
UACC-257
  Activity: 86.93%
UACC-62
  Activity: 76.22%
DU-145
  Activity: 103.19%
PC-3
  Activity: 76.05%
SF-268
  Activity: 72.67%
SF-295
  Activity: 109.86%
SF-539
  Activity: 91.99%
SNB-19 [4]
  Activity: 74.84%
SNB-75
  Activity: 33.5%
U-251
  Activity: 80.63%
SR
  Activity: 87.99%

## Cc1onc(-c2c3ccccc3c(Cl)c3ccccc23)c1C(=O)Nc1cc(C(=O)NCCCN(C)C)n(C)c1
SNB-19 [1]
  IC50: 6.21 µM
